According to US20180172683A1, “METHODS FOR ANALYZING THE INTERACTION BETWEEN A TARGET PROTEIN AND A LIGAND” (UNIVERSITY OF SOUTHERN CALIFORNIA, priority 2015, published 2018):
Peptide text beside a SMILES is read from it. * marks the point of attachment. Biotin = O=C1N[C@H]2[C@H](CS[C@H]2CCCCC(=O)*)N1

Tests used:
Bcl-xL [1] = target: T1, Bcl-xL (Homo sapiens, UniProt Q07817); experiment: Radiolabeled off-rate assay on immobilized Bcl-xL; format: binding
T1 construct: The gene for the first 209 amino acids of Bcl-xL; made in house; host or cells: E. coli BL21(DE3), pET24a vector
Source text: Radiolabeled Off-Rate Assay. The DNA sequences coding for the peptides were ordered from Integrated DNA Technologies (IDT). Each DNA construct contained a T7 RNA Polymerase promoter, and a 5′ deletion mutant of the Tobacco Mosaic Virus (ΔTMV). The C-terminal portion of the peptides were elongated with a flexible serine-glycine linker (six amino acids long) and an HA tag. After gel purification using urea-PAGE, the DNA sequences were PCR amplified using Taq polymerase and in vitro transcribed into mRNA using T7 RNA polymerase. After transcription, the mRNA was urea-PAGE purified and resuspended in deionized water to a final concentration of 30 μM.
The samples were in vitro translated at 30° C. for 1 hour in the translation solution—150 mM KOAc, 750 μM MgCl2, 2 μM mRNA, 1× translation mix (20 mM Hepes-KOH pH 7.6, 100 mM creatine phosphate, 2 mM DTT, and 312.5 μM of each amino acid excluding methionine), ^35S-labeled methionine (Perkin Elmer; 20 μCi for each 25 μL of translation), and 60% (v/v) rabbit reticulocyte lysate. Radiolabeled peptides were purified using magnetic HA beads (Life Technologies) and eluted with 100 μL, 50 mM NaOH, then immediately neutralized with 20 μL of 1 M Tris-HCl, pH 8.0.
The radiolabeled peptides were allowed to bind to 30 pmol immobilized Bcl-xL for 1 hour in sample buffer (1×PBS, 1% (w/v) BSA, 0.1% (v/v) Tween 20, 10 μM biotin). The beads were magnetically separated, and washed 5× with sample buffer. The beads were resuspended in 1 mL of sample buffer containing 3 μM non-biotinylated Bcl-xL (˜100× molar excess relative to immobilized biotinylated Bcl-xL). At various time points, 100 μL of slurry was removed and the beads were magnetically separated and washed. The percent remaining at each time point was determined by dividing the counts per minute (cpm) on beads by total cpm (beads+washes). The peptide off-rate was determined by an exponential fit of the Percent counts on beads vs. Time (s).
The peptide ligands were made using a C-terminal HA tag, and affinity purified.

Bcl-xL [2] = target: T1, Bcl-xL; experiment: High-throughput sequencing kinetic (HTSK) on- and off-rates of mRNA-peptide fusions; format: binding; details: mRNA-peptide fusions, next-generation sequencing
Method: Preparing the pools of fusion ligands. The DNAs for the final enriched pools from the extension and the doped selection against Bcl-xL were generated. The DNA pools were PCR amplified using Taq polymerase and in vitro transcribed into mRNA using T7 RNA polymerase (Liu et al., Methods Enzymol. 318, 268-293 (2000)). After transcription, the mRNA was urea-PAGE purified and resuspended in deionized water to a final concentration of 30 μM. The mRNA was then ligated to fluorescein-F30P (phosphate-dA21-[dT-fluor]-[C9]3-dAdCdCP; where [dT-fluor] is fluorescein dT (Glen Research), [C9] is spacer 9 (Glen Research), and P is puromycin (Glen Research); synthesized at the Keck Oligo Facility at Yale) using T4 DNA ligase (Takahashi et al., Methods Mol. Biol. 535, 293-314 (2009)). The ligation was performed using a splint complementary to the 3′ end of the RNA and the 5′ end of the DNA-linker. The ligated mRNA was urea-PAGE purified and resuspended in deionized water to final concentration of 30 μM. The samples were in vitro translated in the translation solution-150 mM KOAc, 750 μM MgCl2, 2 μM mRNA, in 1× translation mix (20 mM Hepes-KOH pH 7.6, 100 mM creatine phosphate, 2 mM DTT, and 312.5 μM of each amino acid) and 60% (v/v) rabbit reticulocyte lysate. To prepare radiolabeled peptides or proteins, non-labeled methionine was substituted with ^35S-labeled methionine (Perkin Elmer; 20 μCi for each 25 μL of translation). The translation reactions were incubated at 30° C. for one hour. To form mRNA-protein fusions, KCl and MgCl2 were added to the reaction to final concentrations of 250 mM and 30 mM respectively after translation, and the samples were frozen at −20° C.
To purify the fusion molecules, 100 μL of dT cellulose (25% (v/v) slurry, GE Healthcare) in isolation buffer (100 mM Tris-HCl pH 8.0, 1 M NaCl, 0.2% (v/v) Triton X-100) was added and incubated for 1 hour. The beads were washed five times with 700 μL of isolation buffer, and the fusions were eluted with 3×80 μL of 65° C. water and desalted through Centrisep columns (Princeton Separations). The desalted fusions were adjusted to 1×RT buffer (50 mM Tris-HCl pH 8.3, 75 mM KCl, 3 mM MgCl2, […], […],) and the sample was heated to 65° C. for 5 minutes and cooled on ice to anneal the 3′ primer. After cooling, […] of Superscript II enzyme was added and the reaction incubated at 42° C. for one hour. […]
On- and off-rate experiments. […] The radiolabeled samples were washed 3×, and the beads were counted via a scintillation counter.
To obtain the HTSK off-rates, after the kinetic on-rate experiment, the remaining beads were washed 5× with selection buffer. […] The radiolabeled samples were washed and counted via a scintillation counter. […]

[3] = in vitro translated radiolabeled peptides with C-terminal HA tag, read-out: Peptide koff
[4] = radiolabeled peptide-mRNA fusions bound to immobilized Bcl-xL, read-out: koff

T1 sequence (Q07817 1-209 limits assumed): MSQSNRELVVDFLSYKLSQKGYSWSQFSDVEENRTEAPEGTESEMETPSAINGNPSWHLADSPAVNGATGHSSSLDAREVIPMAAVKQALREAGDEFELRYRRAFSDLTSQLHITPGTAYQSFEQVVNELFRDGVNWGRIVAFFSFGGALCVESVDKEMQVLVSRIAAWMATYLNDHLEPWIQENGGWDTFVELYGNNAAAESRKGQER

Row | SMILES | koff (Bcl-xL [1]; [3]) | koff (Bcl-xL [1]; [4]) | koff (Bcl-xL [2])
1 | CC[C@H](C)[C@H](NC(=O)[C@H](C)NC(=O)[C@@H](NC(=O)[C@@H](N)CCSC)[C@@H](C)CC)C(=O)N[C@@H](CO)C(=O)N[C@H](C(=O)N[C@H](C(=O)N[C@@H](Cc1ccc(O)cc1)C(=O)N[C@@H](CC(N)=O)C(=O)N[C@@H](Cc1ccc(O)cc1)C(=O)N[C@@H](CCCCN)C(=O)N[C@@H](CCCCN)C(=O)N[C@@H](C)C(=O)N[C@@H](C)C(=O)N[C@@H](CC(=O)O)C(=O)N[C@@H](Cc1c[nH]cn1)C(=O)N[C@@H](Cc1ccc(O)cc1)C(=O)N[C@@H](C)C(=O)N[C@@H](CCSC)C(=O)N[C@H](C(=O)N[C@@H](CCCCN)C(=O)NCC(=O)N[C@@H](CO)C(=O)N[C@@H](CCCCNC(=O)CCCC[C@@H]1SC[C@@H]2NC(=O)N[C@@H]21)C(N)=O)[C@@H](C)O)[C@@H](C)CC)[C@@H](C)O [D1] (H-MIAISTIYNYKKAADHYAMTKGSK(Biotin)-NH2) | 2e-06 s⁻¹ | 2e-06 s⁻¹ | 1e-06 s⁻¹
2 | CC[C@H](C)[C@H](NC(=O)[C@@H](NC(=O)[C@@H](NC(=O)[C@@H](NC(=O)[C@H](CCC(=O)O)NC(=O)[C@@H](NC(=O)[C@@H](N)CCSC)[C@@H](C)CC)[C@@H](C)O)[C@@H](C)CC)[C@@H](C)O)C(=O)N[C@@H](Cc1ccc(O)cc1)C(=O)N[C@@H](CC(N)=O)C(=O)N[C@@H](Cc1ccc(O)cc1)C(=O)N[C@@H](CCCCN)C(=O)N[C@@H](CCCCN)C(=O)N[C@@H](C)C(=O)N[C@@H](C)C(=O)N[C@@H](CC(=O)O)C(=O)N[C@@H](Cc1c[nH]cn1)C(=O)N[C@@H](Cc1ccccc1)C(=O)N[C@@H](CO)C(=O)N[C@@H](CCSC)C(=O)N[C@@H](CO)C(=O)N[C@@H](CCSC)C(=O)NCC(=O)N[C@@H](CO)C(=O)N[C@@H](CCCCNC(=O)CCCC[C@@H]1SC[C@@H]2NC(=O)N[C@@H]21)C(N)=O [E1] (H-MIETITIYNYKKAADHFSMSMGSK(Biotin)-NH2) | 7.4e-06 s⁻¹ | 1.2e-05 s⁻¹ | 2.5e-06 s⁻¹
